# Data from patent publication US7935724B2, “Thiophene and benzothiophene hydroxamic acid derivatives” (Merck HDAC Research, LLC, priority 2003, dated 2011).
# Target: T1, histone deacetylase, subtype 1 (HDAC1) (Homo sapiens, UniProt Q13547)
# T1 construct: Flag; made in house
# Assay: HDAC1-Flag assay (in vitro deacetylation assay)
# Assay type: biochemical
# Conditions: Table 1, benzothiophene backbone; concentration for 50% inhibition of deacetylation; substrate at Km; unit inferred, text gives nm; read-out: HDAC Inhibition
# Experimental: Novel compounds were tested for their ability to inhibit histone deacetylase, subtype 1 (HDAC1) using an in vitro deacetylation assay. The enzyme source for this assay was an epitope-tagged human HDAC1 complex immuno-purified from stably expressing mammalian cells. The substrate consisted of a commercial product containing an acetylated lysine side chain (BIOMOL Research Laboratories, Inc., Plymouth Meeting, Pa.). Upon deacetylation of the substrate by incubation with the purified HDAC1 complex, a fluorophore is produced that is directly proportional to the level of deacetylation.
# T1 sequence (Q13547 whole entry): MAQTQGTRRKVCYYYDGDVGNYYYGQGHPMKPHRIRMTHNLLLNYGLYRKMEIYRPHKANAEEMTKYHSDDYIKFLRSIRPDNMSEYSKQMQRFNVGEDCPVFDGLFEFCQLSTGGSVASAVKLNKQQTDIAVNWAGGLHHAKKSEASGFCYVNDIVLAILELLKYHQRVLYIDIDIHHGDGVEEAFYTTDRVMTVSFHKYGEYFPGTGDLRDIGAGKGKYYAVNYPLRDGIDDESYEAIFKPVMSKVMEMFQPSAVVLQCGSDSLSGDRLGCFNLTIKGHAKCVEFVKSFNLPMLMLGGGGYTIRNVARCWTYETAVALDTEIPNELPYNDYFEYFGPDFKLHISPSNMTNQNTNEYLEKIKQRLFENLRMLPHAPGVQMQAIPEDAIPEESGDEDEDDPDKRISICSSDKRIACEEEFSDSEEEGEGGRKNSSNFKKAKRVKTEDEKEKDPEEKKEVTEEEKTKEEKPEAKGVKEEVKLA
row,IC50 [nM],SMILES
1,316 ± 56.5,O=C(CN(Cc1ccccc1)Cc1ccccc1)Nc1ccc2cc(C(=O)NO)sc2c1 [Compound 93]
2,36.6 ± 13.2,O=C(CN1CCN(c2ccccc2Cl)CC1)Nc1ccc2cc(C(=O)NO)sc2c1 [Compound 119]
3,50 ± 11.3,O=C(CN1CCN(c2ccccn2)CC1)Nc1ccc2cc(C(=O)NO)sc2c1 [Compound 108]
4,57.3 ± 18.5,O=C(CN(CC(=O)Nc1ccccc1)c1ccc2sc(C(=O)NO)cc2c1)Nc1ccccc1 [Compound 177]
5,163 ± 37.4,O=C(NO)c1cc2cc(CNCCCc3ccccc3)ccc2s1 [Compound 154]
6,79.5 ± 0.7,O=C(NO)c1cc2ccc(NC(=O)C(c3ccccc3)c3ccccc3)cc2s1 [Compound 28]
7,79 ± 11.3,O=C(NO)c1cc2ccc(NC(=O)c3cccc4ccccc34)cc2s1 [Compound 33]
8,125 ± 5.6,O=C(NO)c1cc2ccc(NC(=O)C3(c4ccccc4)CC3)cc2s1 [Compound 126]
9,48.5 ± 6.3,COc1ccccc1CNCc1ccc2cc(C(=O)NO)sc2c1 [Compound 185]
10,18.5 ± 2.1,CCC(C(=O)Nc1ccc2cc(C(=O)NO)sc2c1)c1ccccc1 (stereo not shown) [Compound 180]
11,151 ± 28.2,O=C(NO)c1cc2cc(CNCCc3c[nH]c4ccccc34)ccc2s1 [Compound 145]
12,262 ± 33.9,O=C(Nc1ccc2cc(C(=O)NO)sc2c1)c1cccnc1 [Compound 29]
13,204 ± 48.7,O=C(Nc1ccc2cc(C(=O)NO)sc2c1)c1ccccc1 [Compound 5]
14,66.5 ± 2.1,O=C(NCc1ccccc1Cl)c1ccc2sc(C(=O)NO)cc2c1 [Compound 169]
15,1740 ± 63.6,O=C(NO)c1cc2cc([N+](=O)O)ccc2s1 [Compound 22]
16,53,O=C(NO)c1cc2ccc(CNCc3ccccc3)cc2s1 [Compound 192]
17,615 ± 207,O=C(Nc1ccccc1)c1ccc2cc(C(=O)NO)sc2c1 [Compound 137]
18,90 ± 5.6,COc1ccccc1CNC(=O)c1ccc2sc(C(=O)NO)cc2c1 [Compound 166]
19,96.5 ± 34.4,O=C(NO)c1cc2cc(CNCc3ccccc3Cl)ccc2s1 [Compound 149]

row,IC50 [nM],SMILES
1,76 ± 15.5,COc1ccc(CC(=O)Nc2ccc3sc(C(=O)NO)cc3c2)cc1OC [Compound 85]
2,119 ± 21.9,O=C(NO)c1cc2cc(NS(=O)(=O)Cc3ccccc3)ccc2s1 [Compound 19]
3,536 ± 168,CC(C)(C(=O)Nc1ccc2cc(C(=O)NO)sc2c1)c1ccc(Cl)cc1 [Compound 159]
4,84 ± 5.6,O=C(CN1CCOCC1)Nc1ccc2cc(C(=O)NO)sc2c1 [Compound 116]
5,88.5 ± 33.2,O=C(NCCc1ccccc1)Nc1ccc2cc(C(=O)NO)sc2c1 [Compound 32]
6,99,COc1ccc(CN(Cc2ccc3cc(C(=O)NO)sc3c2)C2CCCCC2)cc1 [Compound 193]
7,582 ± 9.8,O=C(Nc1ccccc1)c1ccc2sc(C(=O)NO)cc2c1 [Compound 104]
8,74.5 ± 7.7,O=C(NCCCc1ccccc1)c1ccc2sc(C(=O)NO)cc2c1 [Compound 112]
9,54,COc1cccc(CC(=O)Nc2ccc3sc(C(=O)NO)cc3c2)c1 [Compound 53]
10,91 ± 49.4,O=C(NO)c1cc2cc(NS(=O)(=O)c3ccc(-c4ccccc4)cc3)ccc2s1 [Compound 18]
11,325 ± 57.4,COc1ccc(CCNCc2ccc3sc(C(=O)NO)cc3c2)cc1OC [Compound 143]
12,609 ± 24.7,O=C(NO)c1cc2cc(C(F)(F)F)ccc2s1 [Compound 2]
13,350 ± 13.4,CCOC(=O)Nc1ccc2cc(C(=O)NO)sc2c1 [Compound 31]
14,46.5 ± 23.3,O=C(NO)c1cc2ccc(NS(=O)(=O)c3ccccc3)cc2s1 [Compound 10]
15,166 ± 22.6,O=C(NO)c1cc2cc(NS(=O)(=O)c3ccccc3)ccc2s1 [Compound 26]
16,45 ± 32.5,O=C(NO)c1cc2ccc(NS(=O)(=O)c3ccc(-c4ccccc4)cc3)cc2s1 [Compound 12]
17,176 ± 13.4,O=C(NO)c1cc2ccc(C(=O)N3CCN(c4ccccc4)CC3)cc2s1 [Compound 139]
18,1580 ± 334,O=C(NO)c1cc2cc(CNCCc3ccc(OCc4ccccc4)c(OCc4ccccc4)c3)ccc2s1 [Compound 144]
19,126 ± 31.1,O=C(NCc1ccc(Cl)cc1)c1ccc2cc(C(=O)NO)sc2c1 [Compound 176]

row,IC50 [nM],SMILES
1,83 ± 21.2,COc1ccc(CC(=O)Nc2ccc3sc(C(=O)NO)cc3c2)cc1 [Compound 96]
2,223 ± 11.3,O=C(NC(Cc1ccccc1)c1ccccc1)c1ccc2cc(C(=O)NO)sc2c1 (stereo not shown) [Compound 131]
3,61 ± 9.8,O=C(CCc1ccccc1)Nc1ccc2sc(C(=O)NO)cc2c1 [Compound 4]
4,52 ± 19.7,O=C(NCc1ccccc1)Nc1ccc2cc(C(=O)NO)sc2c1 [Compound 7]
5,149 ± 23.3,CC(C)C(=O)Nc1ccc2sc(C(=O)NO)cc2c1 [Compound 35]
6,157,O=C(Nc1ccc2sc(C(=O)NO)cc2c1)c1cccnc1 [Compound 37]
7,627 ± 5.6,COC(=O)c1ccc2cc(C(=O)NO)sc2c1 [Compound 23]
8,284 ± 45.2,O=C(NC(c1ccccc1)c1ccccc1)c1ccc2cc(C(=O)NO)sc2c1 [Compound 132]
9,20,COc1ccccc1CC(=O)Nc1ccc2cc(C(=O)NO)sc2c1 [Compound 52]
10,36 ± 1.4,COc1ccc(CNC(=O)c2ccc3sc(C(=O)NO)cc3c2)cc1 [Compound 168]
11,261 ± 89.2,O=C(NC1CCN(Cc2ccccc2)CC1)c1ccc2cc(C(=O)NO)sc2c1 [Compound 129]
12,111 ± 23.3,COc1ccc(OC)c(CC(=O)Nc2ccc3sc(C(=O)NO)cc3c2)c1 [Compound 87]
13,102 ± 26.2,O=C(CN(CC(=O)Nc1ccccc1)C(=O)c1ccc2sc(C(=O)NO)cc2c1)Nc1ccccc1 [Compound 179]
14,88,O=C(NCc1cccc(Cl)c1)c1ccc2sc(C(=O)NO)cc2c1 [Compound 170]
15,144.5 ± 0.7,O=C(NO)c1cc2cc(CNCc3cccc(Cl)c3)ccc2s1 [Compound 150]
16,424 ± 72.7,O=C(NO)c1cc2ccc(C(=O)N3CCCCC3)cc2s1 [Compound 136]
17,444,O=C(Nc1ccc2sc(C(=O)NO)cc2c1)c1ccc2ccccc2n1 [Compound 38]
18,236 ± 28.9,CC(C)(C)OC(=O)CN(CC(=O)Nc1ccc2cc(C(=O)NO)sc2c1)CC(=O)OC(C)(C)C [Compound 118]
19,31 ± 7,O=C(Cc1ccccc1)Nc1ccc2sc(C(=O)NO)cc2c1 [Compound 15]

# Same assay, conditions: Table 2, thiophene backbone; concentration for 50% inhibition of deacetylation; substrate at Km; unit inferred, text gives nm; read-out: HDAC Inhibition
row,IC50 [nM],SMILES
1,705 ± 92.6,O=C(NO)c1ccc(-c2cccc(CN(CCc3ccccc3)Cc3ccnc4ccccc34)c2)s1 [Compound 73]
2,219,O=C(NO)c1ccc(-c2ccccc2)s1 [Compound 54]
3,461,O=C(NO)c1ccc(-c2cccc(CN(CCCc3ccccc3)Cc3cnc4ccccc4c3)c2)s1 [Compound 74]
4,464 ± 65,O=C(NCc1ccccc1)c1ccc(-c2ccc(C(=O)NO)s2)cc1 [Compound 60]
5,134 ± 7.7,O=C(CCc1ccc(C(=O)NO)s1)Nc1nc2ccccc2s1 [Compound 197]
6,174,O=C(NO)c1ccc(-c2cccc(CN3CCN(c4ccccc4)CC3)c2)s1 [Compound 69]
7,127 ± 11.3,O=C(CCc1ccc(C(=O)NO)s1)Nc1cccc(OCc2ccccc2)c1 [Compound 195]

# Tested on: murine erythroleukemia cell line SC9
# Assay: MTS assay (Cell Titer 96 Aqueous One Solution Cell Proliferation Assay)
# Assay type: cell-based
# Conditions: Mus musculus, SC9, 48 h, Table 3, concentration inhibiting proliferation of SC9 cells, unit inferred, unit nm
# Experimental: The novel compounds of the present invention were tested for their ability to inhibit proliferation of the murine erythroleukemia cell line SC9.
# The MTS assay, also referred to as the Cell Titer 96 Aqueous One Solution Cell Proliferation Assay, is a calorimetric method for determining the number of viable cells in proliferation, cytotoxicity or chemosensitivity assays. The MTS reagent contains a novel tetrazolium compound [3-(4,5-dimethylthiazol-2-yl)-5-(3-carboxymethoxyphenyl)-2-(4-sulfophenyl)-2H-tetrazolium, inner salt] and electron coupling reagent (phenazine ethosulfate;PES). Murine erythroleukemia cells (SC-9) were incubated with vehicle or increasing concentrations of compound for 48 hours. Cell proliferation was quantitated by adding a small amount of the MTS reagent directly to culture wells, incubating for 1-4 hours and then recording the absorbance at 490 nm with a 96-well plate reader. The quantity of formazan product, as measured by […] absorbance, is directly proportional to the number of living cells in culture.
row,IC50 [nM],SMILES
1,751,O=C(CN(Cc1ccccc1)Cc1ccccc1)Nc1ccc2cc(C(=O)NO)sc2c1 [Compound 93]
2,568 ± 227,O=C(CN1CCN(c2ccccc2Cl)CC1)Nc1ccc2cc(C(=O)NO)sc2c1 [Compound 119]
3,442,O=C(CN1CCN(c2ccccn2)CC1)Nc1ccc2cc(C(=O)NO)sc2c1 [Compound 108]
4,259 ± 48.7,O=C(CN(CC(=O)Nc1ccccc1)c1ccc2sc(C(=O)NO)cc2c1)Nc1ccccc1 [Compound 177]
5,637,O=C(NO)c1cc2cc(CNCCCc3ccccc3)ccc2s1 [Compound 154]
6,696,O=C(NO)c1cc2ccc(NC(=O)C(c3ccccc3)c3ccccc3)cc2s1 [Compound 28]
7,785,O=C(NO)c1cc2ccc(NC(=O)c3cccc4ccccc34)cc2s1 [Compound 33]
8,836,O=C(NO)c1cc2ccc(NC(=O)C3(c4ccccc4)CC3)cc2s1 [Compound 126]
9,90,COc1ccccc1CNCc1ccc2cc(C(=O)NO)sc2c1 [Compound 185]
10,990,O=C(NO)c1cc2cc(CNCCc3c[nH]c4ccccc34)ccc2s1 [Compound 145]
11,836,O=C(NC1CCCc2ccccc21)c1ccc2cc(C(=O)NO)sc2c1 (stereo not shown) [Compound 135]

# Same assay, conditions: Table 3; concentration inhibiting proliferation of SC9 cells, 48 hours; unit inferred, unit nm
row,IC50 [nM],SMILES
1,140,CCC(C(=O)Nc1ccc2cc(C(=O)NO)sc2c1)c1ccccc1 (stereo not shown) [Compound 180]
